Assay results from the supplement of paper PMC10307832.

Legend:
Test in all cases: relative viability (nuclei count vs DMSO), 5 days (fraction); higher = more cells survive
[1] = tested on: NCI-H1563
In short: (§1)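 Lung cancer cell lines were pin-tool dosed in 1536-well plates on the day after seeding, with either a lone drug or a fixed anchor-drug dose plus five library-drug doses (not always all listed) in √10 steps. Nuclei were counted on 4× images after 5 days. Relative viability is the ratio of treated-well to vehicle-well nuclei counts, with each value a median of duplicate plates.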

[2] = tested on: NCI-H1355
In short: as §1

[3] = tested on: LCLC-103H
In short: as §1

[4] = tested on: NCI-H661
In short: as §1

[5] = tested on: NCI-H441
In short: as §1

[6] = tested on: NCI-H2347
In short: as §1

[7] = tested on: NCI-H596
In short: as §1

[8] = tested on: NCI-H3122
In short: as §1

[9] = tested on: RERF-LC-KJ
In short: as §1

[10] = tested on: PC-14
In short: as §1

[11] = tested on: SK-MES-1
In short: as §1

[12] = tested on: NCI-H1651
In short: as §1

[13] = tested on: NCI-H460
In short: as §1

[14] = tested on: SW 900
In short: as §1

[15] = tested on: NCI-H2170
In short: as §1

[16] = tested on: LXF-289
In short: as §1

[17] = tested on: NCI-H1755
In short: as §1

[18] = tested on: NCI-H727
In short: as §1

[19] = tested on: NCI-H520
In short: as §1

[20] = tested on: NCI-H322M
In short: as §1

[21] = tested on: NCI-H1915
In short: as §1

[22] = tested on: NCI-H650
In short: as §1

**Q.** How did the relative viability ([1]; first compound 0.005 µM) turn out when `CC1(C)CCC(c2ccc(Cl)cc2)=C(CN2CCN(c3ccc(C(=O)NS(=O)(=O)c4ccc(N[C@H](CCN5CCOCC5)CSc5ccccc5)c(S(=O)(=O)C(F)(F)F)c4)cc3)CC2)C1` [Navitoclax] + COc1cc2c(Oc3ccc(NC(=O)C4(C(=O)Nc5ccc(F)cc5)CC4)cc3F)ccnc2cc1OCCCN1CCOCC1 [Foretinib] (partner 0.25 µM) was run?
**A.** 0.948

**Q.** What about the relative viability ([1]; first compound 0.01581 µM) of the same compound?
**A.** 0.967

**Q.** What about the relative viability ([1]; first compound 0.05 µM) of the same compound?
**A.** 0.856

**Q.** What about the relative viability ([1]; first compound 0.1581 µM) of the same compound?
**A.** 0.987

**Q.** And the relative viability ([1]; first compound 0.5 µM)?
**A.** 1.03

**Q.** And the relative viability ([2]; first compound 0.005 µM)?
**A.** 0.993

**Q.** What about the relative viability ([2]; first compound 0.01581 µM) of the same compound?
**A.** 0.951

**Q.** What about the relative viability ([2]; first compound 0.05 µM) of the same compound?
**A.** 0.939

**Q.** And the relative viability ([2]; first compound 0.1581 µM)?
**A.** 0.941

**Q.** And the relative viability ([2]; first compound 0.5 µM)?
**A.** 0.965

**Q.** What about the relative viability ([3]; first compound 0.005 µM) of the same compound?
**A.** 0.676

**Q.** What about the relative viability ([3]; first compound 0.01581 µM) of the same compound?
**A.** 0.934

**Q.** And the relative viability ([3]; first compound 0.05 µM)?
**A.** 0.973

**Q.** What about the relative viability ([3]; first compound 0.1581 µM) of the same compound?
**A.** 0.832

**Q.** And the relative viability ([3]; first compound 0.5 µM)?
**A.** 0.81

**Q.** And the relative viability ([4]; first compound 0.005 µM)?
**A.** 0.984

**Q.** And the relative viability ([4]; first compound 0.01581 µM)?
**A.** 1.06

**Q.** And the relative viability ([4]; first compound 0.05 µM)?
**A.** 0.87

**Q.** And the relative viability ([4]; first compound 0.1581 µM)?
**A.** 0.988

**Q.** What about the relative viability ([4]; first compound 0.5 µM) of the same compound?
**A.** 1

**Q.** And the relative viability ([5]; first compound 0.005 µM)?
**A.** 0.958

**Q.** And the relative viability ([5]; first compound 0.01581 µM)?
**A.** 1.05

**Q.** And the relative viability ([5]; first compound 0.05 µM)?
**A.** 1.05

**Q.** What about the relative viability ([5]; first compound 0.1581 µM) of the same compound?
**A.** 0.945

**Q.** And the relative viability ([5]; first compound 0.5 µM)?
**A.** 0.948

**Q.** And the relative viability ([6]; first compound 0.005 µM)?
**A.** 1.42

**Q.** And the relative viability ([6]; first compound 0.05 µM)?
**A.** 0.652

**Q.** What about the relative viability ([6]; first compound 0.1581 µM) of the same compound?
**A.** 0.665

**Q.** And the relative viability ([6]; first compound 0.5 µM)?
**A.** 0.913

**Q.** What about the relative viability ([7]; first compound 0.005 µM) of the same compound?
**A.** 1.08

**Q.** And the relative viability ([7]; first compound 0.01581 µM)?
**A.** 0.853

**Q.** And the relative viability ([7]; first compound 0.1581 µM)?
**A.** 0.839

**Q.** And the relative viability ([7]; first compound 0.5 µM)?
**A.** 0.917

**Q.** What about the relative viability ([8]; first compound 0.005 µM) of the same compound?
**A.** 0.936

**Q.** And the relative viability ([8]; first compound 0.01581 µM)?
**A.** 1.04

**Q.** And the relative viability ([8]; first compound 0.05 µM)?
**A.** 0.964

**Q.** What about the relative viability ([8]; first compound 0.1581 µM) of the same compound?
**A.** 0.934

**Q.** What about the relative viability ([8]; first compound 0.5 µM) of the same compound?
**A.** 0.966

**Q.** What about the relative viability ([9]; first compound 0.005 µM) of the same compound?
**A.** 0.841

**Q.** What about the relative viability ([9]; first compound 0.01581 µM) of the same compound?
**A.** 0.896

**Q.** What about the relative viability ([9]; first compound 0.05 µM) of the same compound?
**A.** 0.844

**Q.** And the relative viability ([9]; first compound 0.1581 µM)?
**A.** 0.942

**Q.** And the relative viability ([9]; first compound 0.5 µM)?
**A.** 0.849

**Q.** What about the relative viability ([10]; first compound 0.005 µM) of the same compound?
**A.** 0.898

**Q.** And the relative viability ([10]; first compound 0.01581 µM)?
**A.** 0.981

**Q.** What about the relative viability ([10]; first compound 0.05 µM) of the same compound?
**A.** 1.27

**Q.** What about the relative viability ([10]; first compound 0.1581 µM) of the same compound?
**A.** 0.941

**Q.** And the relative viability ([10]; first compound 0.5 µM)?
**A.** 0.838

**Q.** And the relative viability ([11]; first compound 0.005 µM)?
**A.** 0.817

**Q.** And the relative viability ([11]; first compound 0.01581 µM)?
**A.** 1.09

**Q.** And the relative viability ([11]; first compound 0.05 µM)?
**A.** 0.916

**Q.** And the relative viability ([11]; first compound 0.1581 µM)?
**A.** 0.895

**Q.** What about the relative viability ([11]; first compound 0.5 µM) of the same compound?
**A.** 1.04

**Q.** And the relative viability ([12]; first compound 0.005 µM)?
**A.** 0.681

**Q.** And the relative viability ([12]; first compound 0.01581 µM)?
**A.** 0.979

**Q.** And the relative viability ([12]; first compound 0.05 µM)?
**A.** 0.442

**Q.** What about the relative viability ([12]; first compound 0.1581 µM) of the same compound?
**A.** 0.809

**Q.** And the relative viability ([12]; first compound 0.5 µM)?
**A.** 0.847

**Q.** And the relative viability ([13]; first compound 0.005 µM)?
**A.** 0.991

**Q.** And the relative viability ([13]; first compound 0.01581 µM)?
**A.** 1.02

**Q.** What about the relative viability ([13]; first compound 0.05 µM) of the same compound?
**A.** 0.713

**Q.** What about the relative viability ([13]; first compound 0.1581 µM) of the same compound?
**A.** 1.01

**Q.** And the relative viability ([13]; first compound 0.5 µM)?
**A.** 0.941

**Q.** And the relative viability ([14]; first compound 0.005 µM)?
**A.** 0.857

**Q.** And the relative viability ([14]; first compound 0.01581 µM)?
**A.** 1.04

**Q.** What about the relative viability ([14]; first compound 0.05 µM) of the same compound?
**A.** 0.819

**Q.** And the relative viability ([14]; first compound 0.1581 µM)?
**A.** 0.643

**Q.** And the relative viability ([14]; first compound 0.5 µM)?
**A.** 0.85

**Q.** What about the relative viability ([15]; first compound 0.005 µM) of the same compound?
**A.** 0.969

**Q.** And the relative viability ([15]; first compound 0.01581 µM)?
**A.** 1.02

**Q.** What about the relative viability ([15]; first compound 0.05 µM) of the same compound?
**A.** 1.08

**Q.** And the relative viability ([15]; first compound 0.1581 µM)?
**A.** 1.07

**Q.** And the relative viability ([15]; first compound 0.5 µM)?
**A.** 0.955

**Q.** And the relative viability ([16]; first compound 0.005 µM)?
**A.** 1.05

**Q.** And the relative viability ([16]; first compound 0.01581 µM)?
**A.** 0.981

**Q.** And the relative viability ([16]; first compound 0.05 µM)?
**A.** 0.924

**Q.** And the relative viability ([16]; first compound 0.1581 µM)?
**A.** 0.93

**Q.** And the relative viability ([16]; first compound 0.5 µM)?
**A.** 0.966

**Q.** What about the relative viability ([17]; first compound 0.005 µM) of the same compound?
**A.** 0.873

**Q.** What about the relative viability ([17]; first compound 0.01581 µM) of the same compound?
**A.** 1.01

**Q.** And the relative viability ([17]; first compound 0.05 µM)?
**A.** 0.735

**Q.** And the relative viability ([17]; first compound 0.1581 µM)?
**A.** 0.901

**Q.** And the relative viability ([17]; first compound 0.5 µM)?
**A.** 0.855

**Q.** What about the relative viability ([18]; first compound 0.005 µM) of the same compound?
**A.** 1.12

**Q.** What about the relative viability ([18]; first compound 0.01581 µM) of the same compound?
**A.** 0.902

**Q.** And the relative viability ([18]; first compound 0.1581 µM)?
**A.** 0.829

**Q.** What about the relative viability ([18]; first compound 0.5 µM) of the same compound?
**A.** 0.858

**Q.** What about the relative viability ([19]; first compound 0.01581 µM) of the same compound?
**A.** 0.985

**Q.** And the relative viability ([19]; first compound 0.05 µM)?
**A.** 0.892

**Q.** What about the relative viability ([19]; first compound 0.1581 µM) of the same compound?
**A.** 0.738

**Q.** And the relative viability ([19]; first compound 0.5 µM)?
**A.** 0.61

**Q.** And the relative viability ([20]; first compound 0.005 µM)?
**A.** 1.03

**Q.** What about the relative viability ([20]; first compound 0.01581 µM) of the same compound?
**A.** 1.19

**Q.** And the relative viability ([20]; first compound 0.05 µM)?
**A.** 0.795

**Q.** And the relative viability ([20]; first compound 0.1581 µM)?
**A.** 0.992

**Q.** And the relative viability ([20]; first compound 0.5 µM)?
**A.** 1.1

**Q.** What about the relative viability ([21]; first compound 0.005 µM) of the same compound?
**A.** 1.08

**Q.** What about the relative viability ([21]; first compound 0.01581 µM) of the same compound?
**A.** 1.12

**Q.** And the relative viability ([21]; first compound 0.05 µM)?
**A.** 1.11

**Q.** What about the relative viability ([21]; first compound 0.1581 µM) of the same compound?
**A.** 1.02

**Q.** What about the relative viability ([21]; first compound 0.5 µM) of the same compound?
**A.** 1.07

**Q.** What about the relative viability ([22]; first compound 0.005 µM) of the same compound?
**A.** 1.05

**Q.** What about the relative viability ([22]; first compound 0.01581 µM) of the same compound?
**A.** 1.15

**Q.** And the relative viability ([22]; first compound 0.05 µM)?
**A.** 1

**Q.** And the relative viability ([22]; first compound 0.1581 µM)?
**A.** 1.04

**Q.** What about the relative viability ([22]; first compound 0.5 µM) of the same compound?
**A.** 1.07
